From the NIST ThermoML archive (doi:10.1021/je900237e)
Numbers after ± are expanded uncertainties.

Settings: 101.33 kPa, Liquid; for speed of sound: Pulse-echo method; for mass density: Pycnometric method

| Structure (SMILES) | speed of sound (298.15 K) | mass density (298.15 K) | speed of sound (308.15 K) |
| --- | --- | --- | --- |
| Cc1ccccc1C [1,2-dimethylbenzene] | 1344 ± 2 m/s | 875.9 ± 0.46 kg/m3 |  |
| Cc1ccc(C)cc1 [1,4-dimethylbenzene] | 1310 ± 2 m/s | 858.63 ± 0.45 kg/m3 |  |
| Cc1ccccc1N [2-methylaniline] |  | 994.28 ± 0.57 kg/m3 | 1603 ± 2.3 m/s |
| c1ccccc1 [benzene] | 1298 ± 5 m/s | 873.64 ± 5.5 kg/m3 |  |
| Cc1ccccc1 [toluene] | 1305 ± 5 m/s | 862.17 ± 5.4 kg/m3 |  |
